Earlier results on two substances are cited in US8778892B2, “Compounds and methods for treatment of solid tumors” (B & G Partners, LLC, priority 2008, dated 2014).

This data set has as its target CD44 (Homo sapiens, UniProt P16070). Conditions: intact cells.

Chain of CD44 (P16070 21-742, species assumed): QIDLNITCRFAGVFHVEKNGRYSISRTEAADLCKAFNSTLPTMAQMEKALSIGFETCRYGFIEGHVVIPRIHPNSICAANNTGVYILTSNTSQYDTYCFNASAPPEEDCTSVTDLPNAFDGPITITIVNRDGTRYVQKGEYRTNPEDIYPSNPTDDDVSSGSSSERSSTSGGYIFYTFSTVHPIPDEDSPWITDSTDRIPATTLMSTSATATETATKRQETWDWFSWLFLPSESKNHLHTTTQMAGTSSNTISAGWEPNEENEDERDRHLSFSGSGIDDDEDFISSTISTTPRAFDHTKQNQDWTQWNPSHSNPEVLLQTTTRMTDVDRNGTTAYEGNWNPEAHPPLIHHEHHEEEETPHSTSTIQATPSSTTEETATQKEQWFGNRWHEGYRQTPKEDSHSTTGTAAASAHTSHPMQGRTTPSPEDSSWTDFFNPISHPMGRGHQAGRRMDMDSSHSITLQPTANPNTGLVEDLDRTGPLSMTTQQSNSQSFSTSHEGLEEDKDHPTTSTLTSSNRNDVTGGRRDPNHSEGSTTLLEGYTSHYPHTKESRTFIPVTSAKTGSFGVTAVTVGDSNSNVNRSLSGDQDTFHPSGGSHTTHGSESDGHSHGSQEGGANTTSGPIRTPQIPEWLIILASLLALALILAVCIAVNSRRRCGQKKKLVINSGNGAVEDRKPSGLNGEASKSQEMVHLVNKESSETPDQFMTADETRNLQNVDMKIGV

Consider chondroitin sulfate, for which the “capacity to compete with hyaluronan for binding” value is listed as “little capacity to compete”.
Consider heparan sulfate, for which the “capacity to compete with hyaluronan for binding” value was “little capacity to compete”.
